Results published in patent publication US7648993B2, “Methods of treating disorders with Group I mGluR antagonists” (Brown University, priority 2001, dated 2010).

Legend:
[1] = tested on: CA1 neurons in hippocampal slices; experiment: Synaptically evoked NMDAR-mediated EPSCs in CA1 neurons of hippocampal slices; format: cell-based, Long Evans rats; conditions: 5 min, 30 minutes after treatment, +40 mV
Protocol: The loss of synaptic NR1 clusters clearly distinguishes the effect of DHPG from other treatments that selectively affect AMPARs^2,17-19.
Hippocampal slices were prepared from P21-30 Long Evans rats (Charles River, Cambridge, Mass.) as described previously^13,14. Slices recovered for 1-2 h at room temperature in artificial cerebrospinal fluid (ACSF) containing 124 mM NaCl, 5 mM KCl, 1.25 mM NaH2PO4, 26 mM NaHCO3, 1 mM MgCl2, 2 mM CaCl2, 10 mM dextrose, saturated with 95% O2, 5% CO2. For recording, slices were placed in a submersion recording chamber and perfused with 30° C. ACSF at a rate of 2 ml/min.
Synaptically evoked-NMDAR-mediated EPSCs were recorded from area CA1 as described previously for visual cortex^20. NMDA-evoked currents were examined by picospritzing 1 mM NMDA (made in ACSF), applied for 3.5-12.5 ms, near the proximal portion of the primary apical dendrite. NMDA-evoked currents were elicited once every two minutes. Stimulation intensity or picospritz pulse duration/pressure were adjusted to evoke an inward current with amplitude of 50 pA or greater.

[2] = tested on: hippocampal slices from mGluR5 knockout mice; experiment: DHPG-LTD of field potentials in hippocampal slices from mGluR5 knockout mice and wild-type littermates; format: cell-based
Protocol: All animals were used in accordance with procedures approved by the Brown University Institutional Animal Care and Use Committee. Hippocampal slices were prepared from postnatal day 21-30 (P21-30) Long Evans rats (Charles River, Cambridge, Mass.) and mGluR5 knockout mice (Lu et al. 1997) as described previously (Huber et al. 2000). For most experiments, CA3 was removed immediately after sectioning. Slices recovered for 1-2 h at room temperature (rats) or at 30° C. (mice) in artificial cerebrospinal fluid (ACSF) containing (in mM) 124 NaCl, 5 KCl, 1.25 NaH2PO4, 26 NaHCO3, 1 MgCl2, 2 CaCl2, and 10 dextrose, saturated with 95% O2-5% CO2. For recording, slices were placed in a submersion recording chamber and perfused with 30° C. ACSF at a rate of 2 ml/min.
Baseline responses were collected every 10-30 s using a stimulation intensity (10-30 μA; 0.2 ms) yielding 50-60% of the maximal response. Experiments in which there was a>5% drift in the response magnitude during the 20-min baseline period before DHPG or LFS were excluded from further analysis. All experiments with mGluR5 KO mice used wildtype littermates as controls and were performed blind to the genotype, later determined by Therion (Troy, N.Y.). LFS consisted of 900 pulses at 1 Hz. PP-LFS consisted of 900 pairs of stimuli (50-ms interstimulus interval) delivered at 1 Hz. […]
The group data were analyzed as follows: 1) the initial slopes of the FPs and excitatory postsynaptic potentials (EPSPs), or the amplitude of the excitatory postsynaptic currents (EPSCs), for each experiment were expressed as percentages of the preconditioning or DHPG baseline average, 2) the time scale in each experiment was converted to time from the onset of conditioning or DHPG, and 3) the time-matched, normalized data were averaged across experiments and expressed in the text and figures as the means ±SE. Significant differences between groups were determined using an independent t-test or ANOVA performed on a 5-min average taken 1 h after LFS or DHPG application.

[3] = tested on: cultured hippocampal cells; experiment: AMPAR-mediated mEPSC recordings; format: cell-based, rat; conditions: for mEPSC inter-event interval, % of baseline: 5 min; for mEPSC amplitude, % baseline: not statistically significant
[4] = tested on: CA1 neurons in hippocampal slices; experiment: NMDA-evoked currents in CA1 neurons of hippocampal slices; format: cell-based, Long Evans rats; conditions: DHPG 100 μM, 5 min; 50-60 min after treatment
Protocol: As an additional test for an mGluR-induced loss of NMDAR function, we examined the effects of 100 μM DHPG (5 min) on currents evoked by NMDA applied near the proximal portion of the primary apical dendrite (FIG. 9B). Significant depression of NMDAR currents occurred (percent baseline at 50-60 min after DHPG treatment, DHPG, 61.1±12.0, n=7; control, 97.3±9.4; n=7; p<0.05); however, the time course of this change was much slower than that observed for synaptically evoked EPSCs. […] The early LTD of EPSCs could be accounted for by a presynaptic mechanism or by the rapid dispersal of synaptic NMDARs (without immediate internalization). […] Regardless of the early consequences, however, the parallel depression of NMDAR EPSCs and NMDA-evoked responses 60 minutes after DHPG treatment is consistent with an eventual reduction in surface NMDAR expression during mGluR-LTD.
Hippocampal slices were prepared from P21-30 Long Evans rats (Charles River, Cambridge, Mass.) as described previously^13,14. Slices recovered for 1-2 h at room temperature in artificial cerebrospinal fluid (ACSF) containing 124 mM NaCl, 5 mM KCl, 1.25 mM NaH2PO4, 26 mM NaHCO3, 1 mM MgCl2, 2 mM CaCl2, 10 mM dextrose, saturated with 95% O2, 5% CO2. […]
Synaptically evoked-NMDAR-mediated EPSCs were recorded from area CA1 as described previously for visual cortex^20. […]

NC(C(=O)O)c1cc(O)cc(O)c1 (racemic) [DHPG, (RS)-3,5-dihydroxyphenylglycine]
NMDAR-EPSC amplitude as percent of baseline ([1]; DHPG 50 μM): 70.7±2.9% of baseline
NMDAR-EPSC amplitude as percent of baseline ([1]; DHPG 100 μM): 57.7±1.0% of baseline
DHPG-LTD, FP % of baseline, mGluR5 heterozygous mutants ([2]; 1 h after DHPG, mGluR5 +/−): 84±4%
DHPG-LTD, FP % of baseline, wild-type littermate controls ([2]; 1 h after DHPG, wild type): 77±2%
DHPG-LTD, FP % of baseline, mGluR5 homozygous mutants ([2]; measured 1 h after DHPG application, mGluR5 −/−): 98±3%
mEPSC inter-event interval, % of baseline ([3]; 15 min after DHPG 50 μM): 315%
mEPSC amplitude, % baseline ([3]; 15 minutes following DHPG): 94.2%
mEPSC inter-event interval, % of baseline ([3]; 60 minutes after DHPG 50 μM): 319%
mEPSC amplitude, % baseline ([3]; 60 minutes following DHPG): 92.2%
NMDA-evoked currents, percent baseline [4]: 61.1±12.0 percent baseline
